# According to US20110319415A1, “Susceptibility to HSP90-Inhibitors” (Universit+e,uml a+ee t zu K+e,uml o+ee ln, priority 2008, published 2011):
# Several values for one entry are separate records, joined by “and”; a condition that tells them apart may be missing. Equal values may be shown once. Entries after “also recorded” stand apart in the source; their conditions may differ.
# How the values were obtained:
# NSCLC cell lines = test: High-throughput cell-based screening of the NSCLC cell line collection (CellTiter-Glo viability); details: for sensitivity pattern (cytotoxic activity) across the NSCLC cell line collection: cellular viability after 96 h, cellular ATP content, entire NSCLC cell line panel
# [1] = system: KRAS-driven lung adenocarcinomas
# Experimental: FIG. 20. […] Note that the images were taken from the earlier publications for illustration purposes only.
# Transgenic mice (as described in FIG. 20) with KRAS-mutant lung tumors were treated with the HSP90 inhibitor 17-DMAG for seven days. Tumor volumes were determined by magnetic resonance imaging and shown as transthoracic images (left panels), quantified and changes in tumor volume relative to the pre-therapy images are given in percent.
# These mice carry a Lox-Stop-Lox-KRAS_G12D gene. […] Mice received 20 mg/kg/d of 17-DMAG, a geldanamycin HSP90 inhibitor with almost identical structure as 17-AAG.
# c-RAF = test: Immunoblot of lysates of cell lines treated with 17-AAG: c-RAF; format: cell-based, human; details: sensitive (KRAS-mutant) cell lines
# Source text: (§1) (A) Distribution of KRAS mutations (black columns) across the 17-AAG-sensitivity profile (IC50 values) in the NSCLC cell line collection and the NCI-60 cell line panel. Incidence of KRAS mutation and sensitivity towards 17-AAG is represented by a Fisher's exact test for both datasets. (B) Lysates of a KRAS wildtype (wt) and a KRAS mutated (G12C) cell line treated with 17AAG at different concentrations were immunoblotted for c-RAF, KRAS, cyclinD1 and Akt. (C) Distribution of copy number gain at 1q21.3 (black columns) across the UO126-sensitivity profile (IC50 values) in the NSCLC cell line collection and the hypothemycin-sensitivity profile in the NCI-60 cell line panel. Incidence of amplification of 1q21.3 mutation and sensitivity towards 17-AAG is represented by a Fisher's exact test for both datasets. […]
# (§2) Whole-cell lysates were prepared in NP40 lysis buffer (50 mmol/L Tris-HCl (pH 7.4). 150 mmol/L NaCl, 1% NP40) supplemented with protease and phosphatase inhibitor I and II cocktails (www.merckbiosciences.co.uk/g.asp?f=CBC/home.html) and clarified by centrifugation. Protein concentrations were determined using the Bicinchoninic Acid Protein Assay kit (www.piercenet.com) and equivalent amounts (40-60 μg) were subjected to SDS-PAGE on 12% gels, except where indicated. […]
# Akt = test: Immunoblot of lysates of cell lines treated with 17-AAG: Akt; format: cell-based, human; details: sensitive (KRAS-mutant) cell lines
# Source text: as §1, §2
# KRAS = test: Immunoblot of lysates of cell lines treated with 17-AAG: KRAS; format: cell-based, human; details: sensitive (KRAS-mutant) cell lines
# Source text: as §1, §2
# [2] = system: mutant KRAS bound to Hsp90; test: Depletion of mutant KRAS from the Hsp90 complex; format: cell-based; details: treatment with HSP90 inhibitor
# [3] = system: mutant EGFR bound to Hsp90; test: Depletion of mutant EGFR from the Hsp90 complex; format: cell-based; details: same conditions as for KRAS
# [4] = system: Ba/F3 cells expressing erlotinib-sensitizing mutations of EGFR together with T790M; test: Growth inhibition / cytotoxicity in Ba/F3 cells expressing mutant EGFR with T790M; format: cell-based, Murine; details: Ba/F3 with sensitizing EGFR mutation plus T790M, 96 h, cellular ATP content
# Experimental: Compounds were then added in serial dilutions.
# EGFR_cDNA was subcloned into pBabe-hygro vectors.
compound,measurement,setting,value
Cc1cc(Nc2cc(N3CCN(C)CC3)nc(Sc3ccc(NC(=O)C4CC4)cc3)n2)n[nH]1 [VX-680],sensitivity pattern (cytotoxic activity) across the NSCLC cell line collection,NSCLC cell lines,pronounced cytotoxic activity in a small subset of cell lines
"CO[C@H]1/C=C\C=C(/C)C(=O)NC2=CC(=O)C(NCCN(C)C)=C(C[C@@H](C)C[C@H](OC)[C@H](O)[C@@H](C)/C=C(\C)[C@@H]1OC(N)=O)C2=O [17-DMAG, 17-NN-Dimethyl Ethylene Diamine-Geldanamycin]",tumor burden of the third mouse,"[1]; 20 mg/kg/d, one week of treatment, MRI imaging",slight but insignificant reduction of tumor burden
same,mice showing tumor regression,"[1]; 20 mg/kg/d, one week of treatment, MRI imaging, lox-stop-lox KRAS_G12D mice",2 of 3 and 3 of 4
same,duration of responses,"[1]; lung tumor-bearing lox-stop-lox KRAS_G12D mice, one-week treatment",transient
same,biological effects in the cell lines compared with 17-AAG,"NSCLC cell lines; in vitro, data not shown",identical
C#Cc1cccc(Nc2ncnc3cc(OCCOC)c(OCCOC)cc23)c1 [erlotinib],sensitivity pattern (cytotoxic activity) across the NSCLC cell line collection,NSCLC cell lines,pronounced cytotoxic activity in a small subset of cell lines
"C=CCNC1=C2C[C@@H](C)C[C@H](OC)[C@H](O)[C@@H](C)/C=C(\C)[C@H](OC(N)=O)[C@@H](OC)/C=C\C=C(/C)C(=O)NC(=CC1=O)C2=O [17-AAG, [(3S,5S,6R,7S,8E,10R,11S,12E,14E)-21-(allylamino)-6-hydroxy-5,11-dimethoxy-3,7,9,15-tetramethyl-16,20,22-trioxo-17-azabicyclo[16.3.1]docosa-8,12,14,18,21-pentaen-10-yl]carbamate]",c-RAF protein levels after treatment,c-RAF,modulated; also recorded: reduced protein levels
same,Akt protein levels after treatment,Akt,modulated; also recorded: reduced protein levels
same,KRAS protein levels after treatment,KRAS,not modulated
same,depletion of mutant KRAS from the Hsp90 complex,[2],not depleted from the complex
same,depletion of mutant EGFR from the Hsp90 complex,[3],depleted from the complex
same,sensitivity pattern (cytotoxic activity) across the NSCLC cell line collection,NSCLC cell lines,active in most of the cell lines with only a minority being resistant
COc1cc2c(Nc3ccc(Br)cc3F)ncnc2cc1OCC1CCN(C)CC1 [vandetanib],activity / cytotoxicity in Ba/F3 cells expressing the T790M resistance allele,[4],completely resistant
same,activity / cytotoxicity in Ba/F3 cells expressing the T790M resistance allele,[4]; listed as Vandatinib,lack of activity
same,sensitivity pattern (cytotoxic activity) across the NSCLC cell line collection,NSCLC cell lines,pronounced cytotoxic activity in a small subset of cell lines
N#CC(=C(/N)Sc1ccccc1N)/C(C#N)=C(\N)Sc1ccccc1N [U0126],sensitivity pattern (cytotoxic activity) across the NSCLC cell line collection,NSCLC cell lines,enhanced activity in a subset of the lung cancer cell line collection
